Calls of active or inactive are those of the source. No cut-off for these calls is given here.
Assays:
[1] = target: T1, Amyloid-beta precursor protein (Homo sapiens, UniProt P05067); assay: Inhibition of amyloid beta-42 (unknown origin) self-mediated aggregation at 50 uM by thioflavin-T fluorescence assay
[2] = target: T1, Amyloid-beta precursor protein; assay: Inhibition of amyloid beta-42 (unknown origin) aging fibrils disaggregation at 50 uM by thioflavin-T fluorescence assay
SH-SY5Y [3] = assay: Anti-oxidative activity in human SH-SY5Y cells assessed as reduction of ROS generation at 10 uM using DCFH-DA; format: functional
SH-SY5Y [4] = assay: Cytotoxicity against human SH-SY5Y cells assessed as cell viability at 10 uM after 48 hrs by MTT assay; format: cell-based
[5] = target: T1, Amyloid-beta precursor protein; assay: Inhibition of amyloid beta-42 (unknown origin) self-mediated aggregation by thioflavin-T fluorescence assay
SH-SY5Y [6] = assay: Neuroprotective activity in human SH-SY5Y cells assessed as protection against amyloid beta-42-induced cell death at 5 to 50 uM after 48 hrs by MTT assay (reference value: 50.02 +/- 4.98%); format: functional
[7] = target: T1, Amyloid-beta precursor protein; assay: Inhibition of fibrils formation in aggregated amyloid beta-42 (unknown origin) assessed as short fibril formation at 50 uM after 48 hrs by transmission electron microscopy analysis
[8] = target: T1, Amyloid-beta precursor protein; assay: Inhibition of amyloid beta-42 (unknown origin) beta sheets structure formation at 40 uM after 48 hrs by circular dichroism spectra analysis
[9] = target: T1, Amyloid-beta precursor protein; assay: Inhibition of swAPP-mediated amyloid beta-42 production in human HEK293 cells at 25 uM after 48 hrs by ELISA (reference value: 100 +/-3.45%); format: cell-based; set-up: scale not given: the % may be the effect or the level left
Caenorhabditis elegans [10] = assay: Anti-Alzheimer's activity in Caenorhabditis elegans CL4176 expressing amyloid beta assessed as increase of average time of life expectancy at 500 uM (reference value: 46.9 +/- 0.54 hrs); format: functional
Caenorhabditis elegans [11] = assay: Anti-Alzheimer's activity in Caenorhabditis elegans CL4176 expressing amyloid beta assessed as increase of average time of life expectancy at 200 uM (reference value: 46.9 +/- 0.54 hrs); format: functional
Caenorhabditis elegans [12] = assay: Anti-Alzheimer's activity in Caenorhabditis elegans CL4176 expressing amyloid beta assessed as increase of average time of life expectancy at 10 uM (reference value: 46.9 +/- 0.54 hrs); format: functional
Caenorhabditis elegans [13] = assay: Reduction of amyloid beta expression in Caenorhabditis elegans CL4176 at 10 to 50 uM by Western blot analysis; format: functional, organism-based
Caenorhabditis elegans [14] = assay: Anti-Alzheimer's activity in Caenorhabditis elegans CL4176 assessed as delay in amyloid beta-induced paralysis at 10 to 50 uM after 36 hrs of amyloid beta expression; format: functional, organism-based
[15] = target: T1, Amyloid-beta precursor protein; assay: Inhibition of amyloid beta-42 (unknown origin) aging fibrils disaggregation by thioflavin-T fluorescence assay
[16] = target: T1, Amyloid-beta precursor protein; assay: Increase of alpha-helics formation in amyloid beta-42 (unknown origin) at 40 uM after 48 hrs by circular dichroism spectra analysis
[17] = target: T1, Amyloid-beta precursor protein; assay: Inhibition of swAPP-mediated amyloid beta-42 production in human HEK293 cells at 10 uM after 48 hrs by ELISA (reference value: 100 +/-3.45%); format: cell-based; set-up: scale not given: the % may be the effect or the level left
Caenorhabditis elegans [18] = assay: Anti-Alzheimer's activity in Caenorhabditis elegans CL4176 expressing amyloid beta assessed as increase of average time of life expectancy at 50 uM (reference value: 46.9 +/- 0.54 hrs); format: functional
SH-SY5Y [19] = assay: Cytotoxicity against human SH-SY5Y cells assessed as cell viability at 1 to 50 uM after 48 hrs by MTT assay; format: cell-based
[20] = target: T1, Amyloid-beta precursor protein; assay: Inhibition of amyloid beta-42 (unknown origin) fibrils formation at 50 uM after 48 hrs by transmission electron microscopy analysis
[21] = Cytotoxicity against human HEK293 cells expressing swAPP assessed as cell viability at 25 uM after 48 hrs by MTT assay; format: cell-based; conditions: read-out: Activity
Caenorhabditis elegans [22] = assay: Anti-Alzheimer's activity in Caenorhabditis elegans CL4176 assessed as delay in amyloid beta-induced paralysis at 500 uM after 36 hrs of amyloid beta expression; format: functional, organism-based

T1 sequence (P05067 whole entry): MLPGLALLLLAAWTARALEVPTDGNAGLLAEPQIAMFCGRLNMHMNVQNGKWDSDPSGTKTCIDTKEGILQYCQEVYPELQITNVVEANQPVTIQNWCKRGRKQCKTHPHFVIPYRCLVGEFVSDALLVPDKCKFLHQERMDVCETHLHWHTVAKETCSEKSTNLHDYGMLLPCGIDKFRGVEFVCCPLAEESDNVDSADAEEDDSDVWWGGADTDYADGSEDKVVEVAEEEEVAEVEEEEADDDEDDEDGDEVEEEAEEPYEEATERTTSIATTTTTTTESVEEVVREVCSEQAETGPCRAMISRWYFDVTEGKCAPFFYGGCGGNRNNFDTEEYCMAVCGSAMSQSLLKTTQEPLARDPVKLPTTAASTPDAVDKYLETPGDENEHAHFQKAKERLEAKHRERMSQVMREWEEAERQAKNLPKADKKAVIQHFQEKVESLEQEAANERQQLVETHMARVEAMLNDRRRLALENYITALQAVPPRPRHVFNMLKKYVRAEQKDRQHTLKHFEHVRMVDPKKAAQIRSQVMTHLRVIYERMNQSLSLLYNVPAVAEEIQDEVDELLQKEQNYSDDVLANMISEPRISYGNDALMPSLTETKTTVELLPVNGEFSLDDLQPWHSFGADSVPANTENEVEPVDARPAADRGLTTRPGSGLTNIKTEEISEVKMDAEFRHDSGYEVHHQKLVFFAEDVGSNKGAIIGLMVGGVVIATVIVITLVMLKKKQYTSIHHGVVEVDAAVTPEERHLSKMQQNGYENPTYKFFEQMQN

With `CC(C)c1ccc2c(c1)CC[C@H]1[C@](C)(CN)CCC[C@]21C` as the compound, how does the inhibition [1] read?
The inhibition was “inactive”.

What about the inhibition [2] of the same compound?
The inhibition was “inactive”.

What about the inhibition (SH-SY5Y [3]) of the same compound?
Its inhibition is “inactive”.

For `CC(C)c1ccc2c(c1)CC[C@H]1[C@](C)(C/N=C\c3ccc(O)cc3O)CCC[C@]21C`, which Activity (SH-SY5Y [4]) is on record?
Its Activity is “Non-toxic”.

And the inhibition [1]?
Its inhibition is 24.5%.

And the inhibition [2]?
Its inhibition is 10.7%.

And the inhibition at 10 µM (SH-SY5Y [3])?
The inhibition at 10 µM was 26.1%.

For `CC(C)c1c(NC(=O)/C=C/c2ccc(O)c(O)c2)cc2c(c1[N+](=O)[O-])CC[C@H]1[C@](C)(CNC(=O)/C=C/c3ccc(O)c(O)c3)CCC[C@]21C`, which IC50 [5] is on record?
The IC50 was 3.96 µM.

And the Activity (SH-SY5Y [6])?
The Activity was 53.5%.

And the inhibition [7]?
The inhibition was “Active”.

What about the inhibition [8] of the same compound?
Its inhibition is “Active”.

What about the Activity (SH-SY5Y [4]) of the same compound?
The Activity was “Non-toxic”.

What about the Activity [9] of the same compound?
Its Activity is 10.4%.

What about the Time (Caenorhabditis elegans [10]) of the same compound?
The Time was 44.7 h.

And the inhibition [1]?
Its inhibition is 92%.

What about the Time (Caenorhabditis elegans [11]) of the same compound?
The Time was 48.8 h.

And the Time (Caenorhabditis elegans [12])?
The Time was 48.2 h.

What about the Activity (Caenorhabditis elegans [13]) of the same compound?
Its Activity is “Active”.

And the inhibition [2]?
Its inhibition is 82.8%.

What about the Activity (Caenorhabditis elegans [14]) of the same compound?
The Activity was “Active”.

What about the inhibition [15] of the same compound?
The inhibition was “Dose-dependent effect”.

What about the inhibition at 10 µM (SH-SY5Y [3]) of the same compound?
The inhibition at 10 µM was 62.4%.

What about the Activity [16] of the same compound?
The Activity was “Active”.

And the Activity [17]?
Its Activity is 45.6%.

And the Time (Caenorhabditis elegans [18])?
The Time was 50.5 h.

What about the Activity (SH-SY5Y [19]) of the same compound?
Its Activity is “Non-toxic”.

And the inhibition [20]?
The inhibition was “Active”.

And the viability at 48 h, 25 µM [21]?
Its viability at 48 h, 25 µM is over 90%.

Which inhibition [1] does the source give for `CC(C)c1c(N)cc2c(c1[N+](=O)[O-])CC[C@H]1[C@](C)(CN)CCC[C@]21C` here?
The inhibition was “inactive”.

And the inhibition [2]?
The inhibition was “inactive”.

What about the inhibition (SH-SY5Y [3]) of the same compound?
Its inhibition is “inactive”.

Which inhibition [1] does the source give for `CC(C)c1ccc2c(c1)/C(=N/O)C[C@H]1[C@](C)(CNC(=O)C(F)(F)F)CCC[C@]21C` here?
Its inhibition is “inactive”.

And the inhibition [2]?
Its inhibition is “inactive”.

And the inhibition at 10 µM (SH-SY5Y [3])?
Its inhibition at 10 µM is 34.1%.

For `CC(=O)NC[C@]1(C)CCC[C@]2(C)c3ccc(C(C)C)cc3/C(=N/NC(=O)c3ccncc3)C[C@@H]12`, which inhibition [1] is on record?
The inhibition was “inactive”.

What about the inhibition [2] of the same compound?
Its inhibition is “inactive”.

And the inhibition (SH-SY5Y [3])?
The inhibition was “inactive”.

Which Activity (SH-SY5Y [4]) does the source give for `CC(C)c1c(NC(=O)/C=C/c2ccc(O)c(O)c2)cc2c(c1NC(=O)/C=C/c1ccc(O)c(O)c1)CC[C@H]1[C@](C)(CNC(=O)/C=C/c3ccc(O)c(O)c3)CCC[C@]21C` here?
The Activity was “Non-toxic”.

And the inhibition [1]?
The inhibition was 93.3%.

And the inhibition [2]?
Its inhibition is 82.5%.

And the inhibition at 10 µM (SH-SY5Y [3])?
The inhibition at 10 µM was 53.9%.

Which inhibition [1] does the source give for `CC(=O)NC[C@]1(C)CCC[C@]2(C)c3ccc(C(C)C)cc3/C(=N/OC(=O)c3ccc(Cl)cc3)C[C@@H]12` here?
Its inhibition is “inactive”.

What about the inhibition [2] of the same compound?
Its inhibition is “inactive”.

And the inhibition at 10 µM (SH-SY5Y [3])?
Its inhibition at 10 µM is 10.4%.

Which results are given for `CC(=O)Oc1cc(/C=N\C[C@]2(C)CCC[C@]3(C)c4ccc(C(C)C)cc4CC[C@@H]23)cc(OC(C)=O)c1OC(C)=O`?
inhibition [1]: 20.6%; inhibition [2]: 8.93%; inhibition at 10 µM (SH-SY5Y [3]): 48.2%

Which results are given for `CC(C)c1ccc2c(c1)C(=O)C[C@H]1[C@](C)(CNC(=O)C(F)(F)F)CCC[C@]21C`?
inhibition [1]: inactive; inhibition [2]: inactive; inhibition at 10 µM (SH-SY5Y [3]): 19.8%

Which results are given for `CC(=O)NC[C@]1(C)CCC[C@]2(C)c3ccc(C(C)C)cc3/C(=N\NC(N)=S)C[C@@H]12`?
inhibition [1]: inactive; inhibition [2]: inactive; inhibition (SH-SY5Y [3]): inactive

Which results are given for `COc1cc(/C=C/C(=O)CC(=O)/C=C/c2ccc(O)c(OC)c2)ccc1O` [CURCUMIN]?
Activity (SH-SY5Y [4]): Non-toxic; inhibition at 10 µM (SH-SY5Y [3]): 37.9%

Which Activity (SH-SY5Y [4]) does the source give for `CC(C)c1ccc2c(c1)CC[C@H]1[C@](C)(CNC(=O)c3cc(O)c(O)c(O)c3)CCC[C@]21C` here?
The Activity was “Non-toxic”.

And the inhibition [1]?
The inhibition was 74.6%.

What about the inhibition [2] of the same compound?
Its inhibition is 49%.

What about the inhibition at 10 µM (SH-SY5Y [3]) of the same compound?
Its inhibition at 10 µM is 50.8%.

Which inhibition [1] does the source give for `CC(=O)NC[C@]1(C)CCC[C@]2(C)c3ccc(C(C)C)cc3/C(=N/O)C[C@@H]12` here?
Its inhibition is “inactive”.

What about the inhibition [2] of the same compound?
The inhibition was “inactive”.

And the inhibition at 10 µM (SH-SY5Y [3])?
The inhibition at 10 µM was 41.2%.

What does the source list for `CC(=O)NC[C@]1(C)CCC[C@]2(C)c3ccc(C(C)C)cc3/C(=N\NC(N)=O)C[C@@H]12`?
inhibition [1]: inactive; inhibition [2]: inactive; inhibition at 10 µM (SH-SY5Y [3]): 13.3%

What does the source list for `CC(=O)Oc1cc(C(=O)NC[C@]2(C)CCC[C@]3(C)c4ccc(C(C)C)cc4CC[C@@H]23)cc(OC(C)=O)c1OC(C)=O`?
Activity (SH-SY5Y [4]): Non-toxic; inhibition [1]: 55.3%; inhibition [2]: 37.6%; inhibition at 10 µM (SH-SY5Y [3]): 41.8%

Which inhibition [1] does the source give for `CC(C)c1ccc2c(c1)/C(=N/NC(=O)c1ccncc1)C[C@H]1[C@](C)(CNC(=O)C(F)(F)F)CCC[C@]21C` here?
Its inhibition is “inactive”.

And the inhibition [2]?
Its inhibition is “inactive”.

And the inhibition (SH-SY5Y [3])?
The inhibition was “inactive”.

With `CC(C)c1c(N)cc2c(c1[N+](=O)[O-])CC[C@H]1[C@](C)(CNC(=O)c3ccc(O)c(O)c3)CCC[C@]21C` as the compound, how does the inhibition [1] read?
Its inhibition is 26.1%.

What about the inhibition [2] of the same compound?
The inhibition was 14.2%.

What about the inhibition at 10 µM (SH-SY5Y [3]) of the same compound?
The inhibition at 10 µM was 31.2%.

Which inhibition [1] does the source give for `CC(C)c1ccc2c(c1)C(=O)C[C@H]1[C@](C)(CN)CCC[C@]21C` here?
Its inhibition is “inactive”.

And the inhibition [2]?
Its inhibition is “inactive”.

What about the inhibition (SH-SY5Y [3]) of the same compound?
The inhibition was “inactive”.

Which Time (Caenorhabditis elegans [10]) does the source give for `C/C=C1\[C@H]2C=C(C)C[C@]1(N)c1ccc(=O)[nH]c1C2` [HUPERZINE A] here?
Its Time is 48.3 h.

And the Activity (Caenorhabditis elegans [22])?
The Activity was “Active”.

For `CC(=O)NC[C@]1(C)CCC[C@]2(C)c3ccc(C(C)C)cc3/C(=N/NC(C)=O)C[C@@H]12`, which inhibition [1] is on record?
The inhibition was “inactive”.

What about the inhibition [2] of the same compound?
The inhibition was “inactive”.

And the inhibition (SH-SY5Y [3])?
Its inhibition is “inactive”.

From ChEMBL document CHEMBL3621083, “Dehydroabietylamine derivatives as multifunctional agents for the treatment of Alzheimer's disease” (Medchemcomm, 2014)
